From the supplement of paper PMC11451515

Legend:
Conditions in all cases: 48 h
P12-Ichikawa [1] = assay: AUC of viability dose-response curve (% viability x log10 dose units); higher = less sensitive
How it was run: (§1)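 Library compounds in DMSO were applied for 48 h at 37°C at 11 threefold doses (47 μM to 0.79 nM) to medium-adapted leukemia cells in 1536-well plates holding 500 or 1000 cells/well. Luminescence from CellTiter-Glo One was normalised plate by plate against DMSO and cell-free wells. Area under the curve came from trapezoidal integration of a log-logistic fit, after scaling curves that rose above full viability and discarding those that failed quality control. The fit had four parameters and used log10 doses.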

NOMO1 [2] = assay: as above
How it was run: as §1

P12-Ichikawa [3] = assay: cell viability relative to DMSO control; higher = less cytotoxic
How it was run: (§2)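 Before seeding, each leukemia line was adapted for at least four passages in each medium. NOMO1 or SEM cells (500 cells/well) and P12-Ichikawa cells (1000 cells/well) went into 1536-well plates at 5 μl, then received library compounds in DMSO by pin dosing across 11 threefold concentrations, 47 μM to 0.79 nM. Readout was CellTiter-Glo One luminescence after 48 h at 37°C, and viability is given as a per-plate percentage of DMSO wells, with cell-free wells as background.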

NOMO1 [4] = assay: as above
How it was run: as §2

SEM cells [5] = assay: as above
How it was run: as §2

SEM cells [6] = assay: AUC of viability dose-response curve (% viability x log10 dose units); higher = less sensitive
How it was run: as §1

CN(C)CC(C)(C)CNc1nn2c(-c3ccccc3)nnc2cc1C1CCC1
AUC of viability dose-response curve
Conditions | HPLM + 10% dialyzed FBS | RPMI 5 mM glucose + 10% FBS | RPMI 5 mM glucose + 10% dialyzed FBS
NOMO1 [2] | 416 | 447 | 459
P12-Ichikawa [1] | 411 | 405 | 433

cell viability [%]
Conditions | NOMO1 [4] | P12-Ichikawa [3] | SEM cells [5]
HPLM + 10% dialyzed FBS, 0.000781 µM | 113 | 106 | 79.6
HPLM + 10% dialyzed FBS, 0.00234 µM | 110 | 103 | 98.8
HPLM + 10% dialyzed FBS, 0.00702 µM | 117 | 110 | 100
HPLM + 10% dialyzed FBS, 0.0211 µM | 126 | 111 | 98
HPLM + 10% dialyzed FBS, 0.0632 µM | 113 | 112 | 92.1
HPLM + 10% dialyzed FBS, 0.19 µM | 109 | 110 | 114
HPLM + 10% dialyzed FBS, 0.569 µM | 116 | 94.9 | 5.79
HPLM + 10% dialyzed FBS, 1.71 µM | 110 | 111 | 101
HPLM + 10% dialyzed FBS, 5.12 µM | 91.9 | 84.2 | 92.3
HPLM + 10% dialyzed FBS, 15.4 µM | 39.5 | 33.9 | 82.7
HPLM + 10% dialyzed FBS, 46.1 µM | 22.4 | 6.88 | 62.4
RPMI 5 mM glucose + 10% FBS, 0.000781 µM | 107 | 108 | 92.9
RPMI 5 mM glucose + 10% FBS, 0.00234 µM | 98.4 | 111 | 116
RPMI 5 mM glucose + 10% FBS, 0.00702 µM | 103 | 104 | 104
RPMI 5 mM glucose + 10% FBS, 0.0211 µM | 123 | 102 | 127
RPMI 5 mM glucose + 10% FBS, 0.0632 µM | 103 | 109 | 110
RPMI 5 mM glucose + 10% FBS, 0.19 µM | 110 | 106 | 125
RPMI 5 mM glucose + 10% FBS, 0.569 µM | 111 | 87.8 | 6.41
RPMI 5 mM glucose + 10% FBS, 1.71 µM | 122 | 105 | 106
RPMI 5 mM glucose + 10% FBS, 5.12 µM | 116 | 70.3 | 103
RPMI 5 mM glucose + 10% FBS, 15.4 µM | 87 | 46.7 | 81.1
RPMI 5 mM glucose + 10% FBS, 46.1 µM | 15.6 | 6.32 | 73.1
RPMI 5 mM glucose + 10% dialyzed FBS, 0.000781 µM | 91.6 | 105 | 68.1
RPMI 5 mM glucose + 10% dialyzed FBS, 0.00234 µM | 110 | 111 | 123
RPMI 5 mM glucose + 10% dialyzed FBS, 0.00702 µM | 103 | 107 | 101
RPMI 5 mM glucose + 10% dialyzed FBS, 0.0211 µM | 105 | 111 | 113
RPMI 5 mM glucose + 10% dialyzed FBS, 0.0632 µM | 102 | 113 | 105
RPMI 5 mM glucose + 10% dialyzed FBS, 0.19 µM | 95.5 | 115 | 110
RPMI 5 mM glucose + 10% dialyzed FBS, 0.569 µM | 116 | 98.3 | 5.36
RPMI 5 mM glucose + 10% dialyzed FBS, 1.71 µM | 109 | 113 | 102
RPMI 5 mM glucose + 10% dialyzed FBS, 5.12 µM | 100 | 88.1 | 106
RPMI 5 mM glucose + 10% dialyzed FBS, 15.4 µM | 103 | 76.9 | 71.8
RPMI 5 mM glucose + 10% dialyzed FBS, 46.1 µM | 27.7 | 13.6 | 77.8

Nc1ncnc2c1c(-c1cccc(OCc3ccccc3)c1)cn2[C@H]1C[C@@H](CN2CCC2)C1
AUC of viability dose-response curve
Conditions | NOMO1 [2] | P12-Ichikawa [1] | SEM cells [6]
HPLM + 10% dialyzed FBS | 433 | 458 | 437
RPMI 5 mM glucose + 10% FBS | 459 | 465 | 456
RPMI 5 mM glucose + 10% dialyzed FBS | 450 | 467 | 436

cell viability [%], SEM cells [5]
Conditions | HPLM + 10% dialyzed FBS | RPMI 5 mM glucose + 10% FBS
0.000781 µM | 103 | 110
0.00234 µM | 125 | 115
0.00702 µM | 119 | 121
0.0211 µM | 123 | 107
0.0632 µM | 117 | 112
0.19 µM | 126 | 107
0.569 µM | 109 | 123
1.71 µM | 114 | 117
5.12 µM | 96.4 | 111
15.4 µM | 75.3 | 91.3
46.1 µM | 62.9 | 64.4
